Residues, ends and D or L forms follow the SMILES beside them.
Tests used:
[1] = system: tryptophane-labeled 3LA mutant CTH peptide; experiment: Label-free MicroScale Thermophoresis (MST), 3LA mutant CTH peptide; type: binding, Arabidopsis thaliana; conditions: 3 nM to 100 µM, 750 nM tryptophane-labeled peptide, PBS pH 7.5, 1 % DMSO, 0.1 % Pluronic, 25 °C, technical duplicates
Description: (§1) For MST experiments, peptides corresponding to the consensus helical sequence (RSQRVDTLLHHMLGDEL) and the 3LA mutant (RSQRVDTAAHHMAGDEL) were synthesized (Peptide Speciality Laboratories GmbH, Heidelberg, Germany). To allow for label-free MST binding experiments, additional wild type and mutant peptides were synthesized, which were C-terminally extended by addition of two tryptophanes and a short linker (AAWW).
(§2) Labelfree MicroScale Thermophoresis binding experiments were performed in cooperation with the 2bind GmbH (Regensburg, Germany), using 750 nM tryptophane containing target peptide in PBS pH 7.5, 1 % DMSO, 0.1 % Pluronic with varied concentrations of the ligand peptide at 80 % MST power, 100 % LED power in hydrophilic zero background capillaries on a Monolith NT.labelfree device at 25 °C (NanoTemper Technologies, Munich, Germany). Normalized fluorescence data sets (WT peptide and MT peptide) were analyzed in the thermophoresis and temperature jump. For determination of the binding affinity (K D) of the wild type peptide, the recorded fluorescence was normalized to the fraction bound (0 = unbound, 1 = bound), and fitted using the K D fit formula derived from the law of mass action. Technical duplicates were performed for each experimental setup.

[2] = biological target: wild type peptide labeled by tryptophane (Arabidopsis thaliana, UniProt Q94KI8); experiment: Label-free MicroScale Thermophoresis (MST), CTH wild type peptide; type: binding; conditions: 750 nM tryptophane-containing target peptide, ligand 3 nM to 100 µM, PBS pH 7.5, 1 % DMSO, 0.1 % Pluronic, 25 °C, 80 % MST power, 100 % LED power, technical duplicates, read-out: dissociation constant (K D) of CTH homo-dimerization
Description: as §1, §2

[3] = biological target: the molecule itself; experiment: MST; label-free MST; 750 nM tryptophane-containing target peptide in PBS pH 7.5, 1 % DMSO, 0.1 % Pluronic, unlabeled ligand peptide varied from 3 nM to 100 µM, 25 °C, Monolith NT.labelfree; monomer to dimer

How did the “interaction in MST” value [1] turn out when “RSQRVDTAAHHMAGDEL [3LA mutant, 3LA mutant CTH peptide …]” was run?
The value was “no interaction was measured”.

And the “interaction in MST” value ([1]; listed as 3-LA peptide)?
The value was “no interactions”.

And the “interaction in MST” value ([1]; listed as CTH-3LA)?
The value was “lack of dimer formation”.

How did the Kd [2] turn out when `CSCC[C@H](NC(=O)[C@H](Cc1c[nH]cn1)NC(=O)[C@H](Cc1c[nH]cn1)NC(=O)[C@H](CC(C)C)NC(=O)[C@H](CC(C)C)NC(=O)[C@@H](NC(=O)[C@H](CC(=O)O)NC(=O)[C@@H](NC(=O)[C@H](CCCNC(=N)N)NC(=O)[C@H](CCC(N)=O)NC(=O)[C@H](CO)NC(=O)[C@@H](N)CCCNC(=N)N)C(C)C)[C@@H](C)O)C(=O)N[C@@H](CC(C)C)C(=O)NCC(=O)N[C@@H](CC(=O)O)C(=O)N[C@@H](CCC(=O)O)C(=O)N[C@@H](CC(C)C)C(=O)O` [CTH peptide] (H-RSQRVDTLLHHMLGDEL-OH) was run?
The Kd was 3.85 ± 1.1 µM.

B1: Synthetic wild type CTH peptide (consensus C-terminal helix of TPC1, residues 707-723) (peptide)
peptide: RSQRVDTLLHHMLGDEL
notes: The two copies are written as one molecule; also called WT peptide; wild type peptide; source: synthetic peptide (Peptide Speciality Laboratories GmbH); not shown: AAWW (short linker and two tryptophans; only on the target copy held at 750 nM), C-terminal, kept
With B1 as the molecule, how does the Kd [3] read?
The Kd was 3.85 ± 1.1 µM.

From PMC4894940, “The function of the two-pore channel TPC1 depends on dimerization of its carboxy-terminal helix” (Cellular and Molecular Life Sciences: CMLS, 2016)
